Data on eight compounds can be found in patent publication US11389445B2, “Pentafluorosulfanyl-substituted amide derivatives, preparation methods thereof and medical uses thereof” (Beijing Innocare Pharma Tech Co., Ltd., priority 2018, dated 2022).

A value given as a limit tells only on which side of the number the result lay.

Broadly, the IC50 is the concentration at which inhibition is half-maximal. Higher therefore signals weaker potency in that assay.

Chain of indoleamine 2,3-dioxygenase (IDO) in Hela cells induced by IFN-γ (P14902 whole entry): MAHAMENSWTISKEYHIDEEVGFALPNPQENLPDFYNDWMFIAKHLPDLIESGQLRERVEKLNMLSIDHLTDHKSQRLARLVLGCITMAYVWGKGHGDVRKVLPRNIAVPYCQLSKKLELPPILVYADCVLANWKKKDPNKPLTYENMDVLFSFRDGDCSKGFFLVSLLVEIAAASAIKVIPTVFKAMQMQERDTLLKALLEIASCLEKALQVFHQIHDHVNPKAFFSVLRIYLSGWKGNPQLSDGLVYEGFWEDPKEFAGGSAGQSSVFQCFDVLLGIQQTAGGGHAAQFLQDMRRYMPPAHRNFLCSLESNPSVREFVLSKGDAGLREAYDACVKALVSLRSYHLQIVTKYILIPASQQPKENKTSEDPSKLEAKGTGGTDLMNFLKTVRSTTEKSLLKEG

For the first test, the target named is indoleamine 2,3-dioxygenase (IDO) in Hela cells induced by IFN-γ (Homo sapiens (Human), UniProt P14902). As to the kind of experiment: IDO Cellular Activity Inhibition Assay (Ehrlich method). Format: cell-based. Particulars: 24 hours, OD490. The method, then:
IDO Cellular Activity Inhibition Assay
The effect of the compounds of the present invention on the activity of indoleamine 2,3-dioxygenase (IDO) in Hela cells induced by IFN-γ was evaluated by the Ehrlich method.
The experimental principle is summarized as follows: IDO expression is low in Hela cells under no induction, but a certain concentration of IFN-γ can induces Hela cells to express IDO which catalyzes the conversion of tryptophan to N-formyl kynurenine, which in turn is hydrolyzed by trichloroacetic acid to give kynurenine. Kynurenine then reacts with the Ehrlich reagent to give a color enabling detection of the IDO activity. The absorbance at 490 nm (OD490) is directly proportional to the IDO activity.
The test compound was dissolved in DMSO (Sigma, Cat. No. D5879) and diluted to 5 mM, then serially diluted 3-fold with DMSO to a minimum concentration of 2.29 μM, and each concentration point was further diluted 50-fold with FBS-free DMEM medium (ThermoFisher, Cat. No. 11995073). If a compound's IC50 value was very low, the initial concentration of the compound was lowered.
Hela cells (ATCC, Cat. No. CCL-2) were cultured in DMEM complete medium containing 10% FBS (GBICO, Cat. No. 10099-141) and 100 U/mL streptomycin mixture (ThermoFisher, Cat. No. 15140122). When covering the culture vessel 80-90%, the cells were digested with 0.25% trypsin (containing EDTA) (ThermoFisher, Cat. No. 25200056) and planted in 96-well plates (Corning, Cat. No. 3599) by 20000 cells per well (80 μL of DMEM medium). The plates were then incubated in a 37° C., 5% CO2 incubator overnight (18-20 hours).
After overnight, 10 μL of DMEM-diluted compound and 10 μL of 500 ng/mL of IFN-γ were added to each well, and gently mixed and the 96-well plates were placed in a 37° C., 5% CO2 incubator for further culturing. After 24 hours, they were removed and centrifuged at room temperature under 2000×g for 5 min, and then the supernatants were transferred to reaction plates (Sigma, Cat. No. CLS3695). One-twentieth of trichloroacetic acid (Sigma, Cat. No. T9159) was added and incubated at 60° C. After 30 min, the reaction plates were centrifuged at room temperature under 2000×g for 5 min. The supernatants were transferred to clean reaction plates, an equal volume of the Ehrlich reagent was added, mixed, and incubated at room temperature. After 15 min, OD490 of each well was measured.
In this experiment, OD490 without IFN-γ but with DMEM medium replacement was referred as OD490100% inhibition. OD490 with IFN-γ and 0.2% DMSO was referred as OD4900% inhibition. The percentage of inhibition on the IDO1 activity in Hela cells by a compound was calculated using the following formula: Inhibition %=100−100*(OD490compound−OD490100% inhibition)/(OD4900% inhibition−OD490100% inhibition)
Where Y is the percentage of inhibition, Bottom is the bottom platform value of the S-curve, Top is the top platform value of the S-curve, X is the logarithm of the concentration of the test compound, and slope factor is the slope coefficient of the curve.
`C[C@@H](C(=O)Nc1ccc(S(F)(F)(F)(F)F)cc1)[C@H]1CC[C@@H](c2ccnc3ccc(F)cc32)CC1` [Compound 1, (R)-2-((1s,4S)-4-(6-fluoroquinolin-4-yl)cyclohexyl)-N-(4-(pentafluoro-λ^6-sulfanyl)phenyl)propanamide] registered an IC50 of less than 50 nM.
Same read-out and setting: the figure for `C[C@@H](C(=O)Nc1ccc(S(F)(F)(F)(F)F)cc1)[C@H]1CC[C@H](c2ccnc3ccc(F)cc32)CC1` [Compound 2, (R)-2-((1r,4R)-4-(6-fluoroquinolin-4-yl)cyclohexyl)-N-(4-(pentafluoro-λ^6-sulfanyl)phenyl)propanamide] is 200 to 1000 nM; for `Cc1cc([C@H]2CC[C@@H]([C@@H](C)C(=O)Nc3ccc(S(F)(F)(F)(F)F)cc3)CC2)ccn1` [Compound 3, (R)-2-((1s,4S)-4-(2-methylpyridin-4-yl)cyclohexyl)-N-(4-(pentafluoro-λ^6-sulfanyl)phenyl)propanamide] it is less than 50 nM; for `C[C@@H](C(=O)Nc1ccc(S(F)(F)(F)(F)F)cc1)C1CCC(c2ccnc3ccnn23)CC1` (stereo partly drawn) [Compound 4, (R)-N-(4-(pentafluoro-λ^6-sulfanyl)phenyl)-2-(4-(pyrazolo[1,5-a]pyrimidin-7-yl)cyclohexyl)propanamide] it is 50 to 200 nM.
`O=C(CC1(O)CCC(c2ccnc3ccc(F)cc23)CC1)Nc1ccc(S(F)(F)(F)(F)F)cc1` (stereo not drawn) [Compound 5, 2-(4-(6-fluoroquinolin-4-yl)-1-hydroxycyclohexyl)-N-(4-(pentafluoro-λ^6-sulfanyl)phenyl)acetamide] registered an IC50 of less than 50 nM.
For `C[C@@H](C(=O)Nc1cccc(S(F)(F)(F)(F)F)c1)[C@H]1CC[C@@H](c2ccnc3ccc(F)cc32)CC1` [Compound 8, (R)-2-((1s,4S)-4-(6-fluoroquinolin-4-yl)cyclohexyl)-N-(3-(pentafluoro-λ^6-sulfanyl)phenyl)propanamide], the IC50 lay in the range of 200 to 1000 nM.
For the compound `CC(NC(=O)c1ccc(S(F)(F)(F)(F)F)cc1)[C@H]1CC[C@@H](c2ccnc3ccc(F)cc32)CC1` (stereo partly drawn) [Compound 9, N-(1-((1s,4s)-4-(6-fluoroquinolin-4-yl)cyclohexyl)ethyl)-4-(pentafluoro-λ^6-sulfanyl)benzamide], the IC50 was less than 50 nM.

For a further test, the target named is plasma IDO1 (Mus musculus (Mouse), UniProt P28776).
Chain of plasma IDO1 (P28776 whole entry): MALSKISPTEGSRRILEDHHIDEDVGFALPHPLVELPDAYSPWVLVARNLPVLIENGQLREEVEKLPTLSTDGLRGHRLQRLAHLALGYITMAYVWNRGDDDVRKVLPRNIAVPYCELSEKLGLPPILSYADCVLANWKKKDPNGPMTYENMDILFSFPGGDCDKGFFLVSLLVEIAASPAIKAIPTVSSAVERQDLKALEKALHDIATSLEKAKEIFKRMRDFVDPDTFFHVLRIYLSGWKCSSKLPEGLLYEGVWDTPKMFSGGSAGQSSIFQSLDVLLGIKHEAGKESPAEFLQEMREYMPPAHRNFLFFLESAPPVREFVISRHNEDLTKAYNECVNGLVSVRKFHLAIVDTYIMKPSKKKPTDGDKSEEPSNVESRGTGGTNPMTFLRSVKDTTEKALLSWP
Assay: not given
Particulars: single dose, nude mice; cited from earlier work.
With `NS(=O)(=O)NCCNc1nonc1C(=NO)Nc1ccc(F)c(Br)c1` [INCB-024360], the “inhibition of the activity of plasma IDO1” value is “effectively inhibit the activity of plasma IDO1 in nude mice at the same level as that in IDO-deficient mice”.

In another test the test system is CT26 tumors.
Assay: not given
Particulars: repeated doses; cited from earlier work.
Regarding `NS(=O)(=O)NCCNc1nonc1C(=NO)Nc1ccc(F)c(Br)c1` [INCB-024360], the “expansion of CT26 tumors” value was “prevented the expansion of CT26 tumors”.
